Results as given in patent publication US9113629B2, “4-amino-6-(4-substituted-phenyl)-picolinates and 6-amino-2-(4-substituted-phenyl)-pyrimidine-4-carboxylates and their use as herbicides” (DOW AGROSCIENCES LLC, priority 2013, dated 2015).
Where two headings read alike, the source gives them in different places.

How the values were obtained:
[1] = test system: Key Grass and Sedge Weeds as well as Grass Crops; assay: Post-emergent Test II herbicidal activity (Table 6); assay type: in vivo; conditions: post-emergence, 336 h; for pest or weed control at 70 g/ha: application rate 70 g ai/ha; for pest or weed control at 140 g/ha: application rate 140 g ai/ha
In short: (§1)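 Plants grown in Metro-Mix 360 (pH 6.0–6.8) in a greenhouse (~15 h photoperiod, 23–29 °C day) to first or second true leaf stage, then sprayed with compound in acetone/DMSO/aqueous crop-oil-surfactant carrier at 187 L/ha by track sprayer. Injury visually scored 0–100% versus untreated plants after 14 d.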

[2] = test system: Key Broadleaf Weed and Crop Species; assay: Post-emergent Test II herbicidal activity (Table 5); assay type: in vivo; conditions: post-emergence, 336 h, post-emergent, 14 days after application; for pest or weed control at 70 g/ha: 70 g ai/ha; for pest or weed control at 140 g/ha: 140 g ai/ha
In short: as §1

[3] = Triticum aestivum, TRZSS (wheat), read-out: Visual Growth Reduction (%) 14 Days After Application, TRZSS
[4] = CYPES: yellow nutsedge (Cyperus esculentus), read-out: Visual Growth Reduction (%) 14 Days After Application, CYPES
[5] = DIGSA: crabgrass (Digitaria sanguinalis), read-out: Visual Growth Reduction (%) 14 Days After Application, DIGSA
[6] = ECHCG: barnyardgrass (Echinochloa crus-galli), read-out: Visual Growth Reduction (%) 14 Days After Application, ECHCG
[7] = ORYSA: rice (Oryza sativa), read-out: Visual Growth Reduction (%) 14 Days After Application, ORYSA
[8] = SETFA: giant foxtail (Setaria faberi), read-out: Visual Growth Reduction (%) 14 Days After Application, SETFA
[9] = SORVU: grain sorghum (Sorghum vulgare), read-out: Visual Growth Reduction (%) 14 Days After Application, SORVU
[10] = ZEAMX: maize, corn (Zea mays), read-out: Visual Growth Reduction (%) 14 Days After Application, ZEAMX
[11] = ABUTH: velvetleaf (Abutilon theophrasti), read-out: Visual Growth Reduction (%) 14 Days After Application ABUTH
[12] = AMARE: redroot pigweed (Amaranthus retroflexus), read-out: Visual Growth Reduction (%) 14 Days After Application AMARE
[13] = BRSNN: oilseed-rape, canola (Brassica napus), read-out: Visual Growth Reduction (%) 14 Days After Application BRSNN
[14] = CHEAL: lambsquarters (Chenopodium album), read-out: Visual Growth Reduction (%) 14 Days After Application CHEAL
[15] = EPHHL: wild poinsettia (Euphorbia heterophylla), read-out: Visual Growth Reduction (%) 14 Days After Application EPHHL
[16] = HELAN: sunflower (Helianthus annuus), read-out: Visual Growth Reduction (%) 14 Days After Application HELAN
[17] = VIOTR: wild pansy (Viola tricolor), read-out: Visual Growth Reduction (%) 14 Days After Application VIOTR

| Compound | pest or weed control at 140 g/ha [1, 3] | pest or weed control at 70 g/ha [1, 4] | pest or weed control at 140 g/ha [1, 4] | pest or weed control at 70 g/ha [1, 5] | pest or weed control at 70 g/ha [1, 6] | pest or weed control at 140 g/ha [1, 6] | pest or weed control at 70 g/ha [1, 7] | pest or weed control at 140 g/ha [1, 7] | pest or weed control at 70 g/ha [1, 8] | pest or weed control at 140 g/ha [1, 8] | pest or weed control at 70 g/ha [1, 9] | pest or weed control at 140 g/ha [1, 9] | pest or weed control at 70 g/ha [1, 10] | pest or weed control at 140 g/ha [1, 10] | pest or weed control at 70 g/ha [2, 11] | pest or weed control at 140 g/ha [2, 11] | pest or weed control at 70 g/ha [2, 12] | pest or weed control at 140 g/ha [2, 12] | pest or weed control at 70 g/ha [2, 13] | pest or weed control at 140 g/ha [2, 13] | further results |
| --- | --- | --- | --- | --- | --- | --- | --- | --- | --- | --- | --- | --- | --- | --- | --- | --- | --- | --- | --- | --- | --- |
| COC(=O)c1nc(-c2ccc(Br)cc2)c(Cl)c(N)c1Cl [Compound 47] | 45 to 59% | 85 to 94% | 95 to 100% | 75 to 84% | 85 to 94% | 85 to 94% | 0 to 29% | 0 to 29% | 85 to 94% | 95 to 100% | 85 to 94% | 85 to 94% | 85 to 94% | 85 to 94% | 95 to 100% | 95 to 100% | 95 to 100% | 95 to 100% | 95 to 100% | 95 to 100% | pest or weed control at 70 g/ha [1, 3]: 45 to 59%; pest or weed control at 140 g/ha [1, 5]: 75 to 84%; pest or weed control at 70 g/ha [2, 14]: 95 to 100%; pest or weed control at 140 g/ha [2, 14]: 95 to 100%; pest or weed control at 70 g/ha [2, 15]: 85 to 94%; pest or weed control at 140 g/ha [2, 15]: 95 to 100%; pest or weed control at 70 g/ha [2, 16]: 95 to 100%; pest or weed control at 140 g/ha [2, 16]: 95 to 100%; pest or weed control at 70 g/ha [2, 17]: 0 to 29%; pest or weed control at 140 g/ha [2, 17]: 0 to 29% |
| COC(=O)c1nc(-c2cc(F)c(Br)cc2F)c(F)c(N)c1Cl [Compound 51, methyl 4-amino-6-(4-bromo-2,5-difluorophenyl)-3-chloro-5-fluoropicolinate] | 85 to 94% | 95 to 100% | 95 to 100% | 95 to 100% | 95 to 100% | 95 to 100% | 0 to 29% | 0 to 29% | 95 to 100% | 95 to 100% | 95 to 100% | 95 to 100% | 85 to 94% | 85 to 94% | 95 to 100% | 95 to 100% | 95 to 100% | 95 to 100% | 95 to 100% | 95 to 100% | pest or weed control at 70 g/ha [1, 3]: 60 to 74%; pest or weed control at 70 g/ha [2, 14]: 95 to 100%; pest or weed control at 140 g/ha [2, 14]: 95 to 100%; pest or weed control at 70 g/ha [2, 15]: 95 to 100%; pest or weed control at 140 g/ha [2, 15]: 95 to 100%; pest or weed control at 70 g/ha [2, 16]: 95 to 100%; pest or weed control at 140 g/ha [2, 16]: 95 to 100%; pest or weed control at 70 g/ha [2, 17]: 95 to 100%; pest or weed control at 140 g/ha [2, 17]: 95 to 100% |
| C=Cc1c(C(=O)OC)nc(-c2ccc(C(F)(F)F)c(F)c2F)c(F)c1N [Compound 53, methyl 4-amino-6-(2,3-difluoro-4-(trifluoromethyl)phenyl)-5-fluoro-3-vinylpicolinate] | 0 to 29% | 0 to 29% | 0 to 29% | 0 to 29% | 0 to 29% | 0 to 29% | 0 to 29% | 0 to 29% | 0 to 29% | 0 to 29% | 0 to 29% | 0 to 29% | 0 to 29% | 0 to 29% | 0 to 29% | 0 to 29% | 0 to 29% | 0 to 29% | 0 to 29% | 0 to 29% | pest or weed control at 70 g/ha [1, 3]: 0 to 29%; pest or weed control at 140 g/ha [1, 5]: 0 to 29%; pest or weed control at 70 g/ha [2, 14]: 0 to 29%; pest or weed control at 140 g/ha [2, 14]: 0 to 29%; pest or weed control at 70 g/ha [2, 15]: 95 to 100%; pest or weed control at 140 g/ha [2, 15]: 95 to 100%; pest or weed control at 70 g/ha [2, 16]: 0 to 29%; pest or weed control at 140 g/ha [2, 16]: 0 to 29%; pest or weed control at 70 g/ha [2, 17]: 0 to 29%; pest or weed control at 140 g/ha [2, 17]: 0 to 29% |
| COC(=O)c1nc(-c2cc(F)c(I)cc2F)c(F)c(N)c1Cl [Compound 55, methyl 4-amino-3-chloro-6-(2,5-difluoro-4-iodophenyl)-5-fluoropicolinate] | 95 to 100% | 95 to 100% | 95 to 100% | 85 to 94% | 95 to 100% | 95 to 100% | 0 to 29% | 0 to 29% | 95 to 100% | 95 to 100% | 85 to 94% | 95 to 100% | 60 to 74% | 85 to 94% | 95 to 100% | 95 to 100% | 95 to 100% | 95 to 100% | 95 to 100% | 95 to 100% | pest or weed control at 140 g/ha [1, 5]: 85 to 94%; pest or weed control at 70 g/ha [2, 14]: 95 to 100%; pest or weed control at 140 g/ha [2, 14]: 95 to 100%; pest or weed control at 70 g/ha [2, 15]: 95 to 100%; pest or weed control at 140 g/ha [2, 15]: 95 to 100%; pest or weed control at 70 g/ha [2, 16]: 95 to 100%; pest or weed control at 140 g/ha [2, 16]: 95 to 100%; pest or weed control at 70 g/ha [2, 17]: 95 to 100%; pest or weed control at 140 g/ha [2, 17]: 95 to 100% |
